Source: paper PMC9714824, “Hexapeptides from mammalian inhibitory hormone hunt activate and inactivate nematode reproduction” (PLOS ONE, 2022)

Experiments:
[1] = test system: Steinernema siamkayai; assay: Nematode pilot study fecundity (S3 Table 1); assay type: in vivo; settings: inoculum 5 IJs
Excerpt: (§1) The attempt was made here to replicate prior fecundity work in another species of nematode, the entomopathogenic (insect slaying) Steinernema siamkayai. Species confirmation involved standard morphological and molecular techniques (S3 File, Nematodes). S. siamkayai is a biocontrol agent of potential economic significance in global agriculture, reducing the need for pesticides. Crucial for deployment is the production of ‘infective juveniles’. These forms penetrate the larvae of insect pests, releasing a bacterium, Xenorhabdus spp., which ultimately kills the larvae. Stock solutions (5 mg mL^-1) of EPL036 (IEPVFT) and EPL630 (KLKMNG) were made up and stored at −20 °C. Lipid Agar plates were prepared by pouring 5 ml media in 60 mm plastic Petri dishes. The plates were inoculated with an overnight-grown bacterial culture of Xenorhabdus spp. (10^9 cfu/ml) at 100 μl/plate and incubated at 28 °C for 24h. Xenorhabdus bacteria are symbiotically associated with S. siamkayai. While multiplying, Xenorhabdus metabolises the constituents of the lipid agar and the resulting by-products are the food supplement for the nematodes that triggers the worms to grow and multiply. From the stock solutions, peptides were introduced individually into the centre of the Lipid Agar plates with Xenorhabdus lawn. Two concentrations of peptide were used, 4 and 8 μL of the 5 mg mL^-1 stock peptide solutions (making 20 and 40 μg of peptide per plate in total, respectively, i.e. ~6 and ~12 μM). Each peptide solution was uniformly spread using an L shaped spreader and allowed to absorb into the agar plate for 10 minutes. Nematodes were harvested beforehand as follows. Third-stage infective juveniles (IJs) of S. siamkayai were used to infect fourth instar Galleria larvae. Following larval death, the Galleria cadavers were placed on a White’s Trap to harvest fresh progeny within 5–6 days. After storage in sterile water, these new-generation IJs were concentrated and inoculated on the bacterial plates on Day 1 at 500 and 1000 IJs /plate. The eight treatments (two inocula at two peptide concentrations) and two controls (two inocula without peptides) were replicated (x3) and incubated at 28 °C. Observations of behaviour and morphology were made at intervals throughout the study, then on Day 5 (i.e. after 4 units of 24h) the nematodes were harvested. Two ml of distilled water was poured on each Petri dish and gently stirred to release the nematodes from the surface. The surface washings containing suspended nematodes were collected in a standard volume of 20 ml of distilled water. The number of mature adults (male and female) and the second-generation juveniles (J1, J2, J3 and pre-adults) were counted using a dissecting microscope (x10 magnification, 4 fields) in 0.05 ml subsamples (x3) and multiplied up to the standard volume of 20 ml.
Mean number of A) Infective juveniles and B) Adults following inoculation of Petri dishes treated with EPL036 and EPL630 at 4 µL and 8 µL and an untreated control; Petri dishes were initially inoculated with 5 infective juveniles of Steinernema siamkayai following the method used in the main manuscript (Single way ANOVA presented beneath each data set).

[2] = test system: Steinernema siamkayai; assay: Steinernema siamkayai reproduction and development on lipid agar plates with hexapeptides; assay type: in vivo; design: key to Infective juveniles / Adults: counts per plate, scaled from 0.05 ml subsamples to 20 ml
Excerpt: as §1
Fig 2 Developmental impact on Steinernema siamkayai of hexapeptides after 4 days. INOCULUM = founding population of infective juveniles (IJs). ‘Infective juveniles’ on the vertical axis are mostly second-generation IJs. Peptides applied at the start of the study were EPL036 = IEPVFT, […] = KLKMNG. Total = Adults + Infective juveniles. Data are mean +/- SEM (average of 3 replicates). Statistical analysis: ANOVA. Control bars are doubly represented for ease of comparison. Note different vertical axes. […]

[3] = test system: Caenorhabditis elegans; settings: in words; cited from earlier work
Excerpt: As a control compound there was synthesized EPL030, having the aa sequence KLKMNGKNIEPVFT. This is a scrambling of EPL001’s sequence, based on cards drawn at random by one of us (CRM). […] The figures for fecundity were EPL001 +43 ... || Returning to EPL030, the scrambled-sequence EPL001 comparator, this has engendered perplexity by displaying the same activity as EPL001 across multiple mammalian systems. Thus, EPL030 suppressed human prostate cancer cells in vitro more than EPL001 in two laboratories and the proliferation of rat bone marrow cells in vitro in a third.

[4] = test system: human marrow derived mesenchymal stem cells (hMSCs); assay: Peptide immobilisation studies, hMSC proliferation (CyQuant) and FACS; assay type: cell-based; settings: alanine substitution study; for Mean cell number: N-terminally tethered, seeding 5,000 cells per well, CyQuant, mean +/− SEM, n = 3
Excerpt: Could the antiproliferative activity in vitro of EPL001 in solution be more predictably evoked and investigated more readily if the peptide is instead tethered to the cell culture’s substratum? […] In the first study EPL001 was immobilised by either its N terminus or C terminus and human stem cells exposed accordingly. This followed a confirmation of dissolved EPL001’s antiproliferative activity in the same laboratory (JAH). In the second study, aa sections of EPL001 were substituted with alanine strings prior to tethering, to define a functional biological motif. Into the base of each well of a 24-well plate was inserted a glass coverslip (13mm diameter, borosilicate glass, SLS, Nottingham, UK), upon the upper surface of which had been immobilised an individual peptide using a bioconjugate technique. During preparation of the coverslips, the surfaces were modified with carboxyl (−COOH) or amine (−NH2) groups separately using a published method. The carboxyl on the coverslips or at the end of the peptide sequence were reacted with NHS in the presence of EDC, resulting in a semi-stable NHS ester, which could then be reacted with primary amines (−NH2) on the coverslips or at the end of the peptide sequences to form amide crosslinks. For the carboxyl modified coverslips, the final peptide grafted on to the surface via its NH2 terminus was in the form Glass-CO-NH-Peptide. For the amine modified coverslips, the final peptide grafted on to the surface via its COOH terminus was in the form Glass-NH-CO-Peptide. The concentration of the peptides across the glass was approximately […]. Uncoated glass was used as the reference control. Treatments were in triplicate (i.e. n = 3). The cells used were human marrow derived mesenchymal stem cells (hMSCs, Lonza, Slough, UK, cat No PT-2507). In the EPL001-terminus study they were seeded at 10,000 cells per well; in the alanine substitution study the density was 5,000 cells per well. The cells were maintained in DMEM with 10% FSC. EPL001 and three alanine-substituted versions of it were deployed separately: MKPLTGKVKEFNNI (EPL001), AAAAAGKVKEFNNI (EPL590), MKPLTAAAAEFNNI (EPL545) and MKPLTGKVKEAAAA (EPL104). The peptides in the alanine substitution study were N-terminally tethered to the substrate. Cell numbers were measured by CyQuant® (Invitrogen, Paisley, UK). […] Statistical analysis was by ANOVA using SPSS software.
Four 14-aa peptides were synthesised: MKPLTGKVKEFNNI (EPL001), AAAAAGKVKEFNNI (EPL590), MKPLTAAAAEFNNI (EPL545) and MKPLTGKVKEAAAA (EPL104). The peptides were generated from l-isomer amino acids by solid phase peptide synthesis (Model 9050, Milligen). All peptides were N-terminally tethered to the substrate by a bioconjugate technique. MSCs were derived from human bone marrow and maintained in DMEM with 10% FSC. Cells were seeded on peptide treated surfaces including a glass control in a 24-well plate with cell density 5 x 10^3. The growth inhibitory activity was examined via cell proliferation assays and cell cycle analysis, using PI and Ki-67 staining. The cell phenotype and viability (7-AAD) were analysed by flow cytometry.

[5] = test system: DU145 cells; assay: MTS viable cell assay, DU145 (Epistem); assay type: cell-based, human; settings: in words
Procedure: Further assays on human prostate cancer cells were conducted at a contract research organisation (Epistem, Manchester, UK). LNCaP or DU145 cells seeded at 3,000 cells/well across a 96-well plate were cultured in RPMI (phenol red free), 10% FCS, 1% sodium pyruvate, Pen/strep and L-glutamine for 24h before exposure to peptides, at a single dose level in the case of LNCaPs or multiple dose levels in the case of DU145s. (For dose levels see Results.) Controls received vehicle (1% PBS). For the DU145s peptide administration was repeated after 24h. 72h after the first administration (DU145s) or only administration (LNCaP) total viable cell numbers were measured colorimetrically (MTS) using a CellTiter 96 AQueous One Solution Cell Proliferation Assay (Promega, Southampton, UK), following manufacturer’s instructions. Briefly, the media on the plates was replaced with the CellTiter reagent diluted 1:5 in DMEM. The plates were returned to the incubator for 3 hours before reading absorbance at 492 nm on a FLUORstar OPTIMA (BMG Labtech). CellTiter data are the absorbance minus background values (CellTiter plus DMEM), expressed as (OD mean +/− SEM). Statistical analysis was by ANOVA, Dunnett’s multiple comparisons test.

[6] = test system: PC3 cells; assay: MTS colorimetric viable cell assay, PC3; assay type: cell-based, human
Procedure: (§2) Assays involving a range of peptides from 14mer down to 6mers assessed total viable PC3 or PNT2 cells using a 96-well plate MTS colorimetric assay (CellTiter 96 Aqueous One Solution Cell Proliferation Assay, Promega, Southampton, UK), with absorbance measured at 492 nm. Cells were seeded at 8,000 per well and grown for 27h. Peptides were administered at the outset to a final concentration of 30 μM (in 2 μl) to samples in triplicate. (A higher dosage was used than in the 14mer peptides study to shorten the timecourse of response.) Controls received buffer. Data are OD mean +/ − SEM, with statistical analysis by two tailed t-test. A time course study of the 14mers on PC3s, using the same technique, involved measurements at 24h and 48h.
(§3) Fig 5 Effects of a range of peptides on human prostate cancer cell growth in vitro. Assays involved a range of peptides from 14mers down to 6mers (Table 1), with viable cells assessed using a 96-well plate MTS colorimetric assay. Absorbance measured at 492 nm. Cells were seeded at 8,000 per well and grown for 27h. Peptides were administered at the outset to a final concentration of 30 μM (in 2 μl) to samples in triplicate. Controls received buffer. Data are OD mean +/- SEM, with statistical analysis by two tailed t-test. * p<0.05; **p<0.025.

[7] = test system: PNT2 cells; assay: MTS colorimetric viable cell assay, PNT2; assay type: cell-based, human; settings: 30 μM, 27h, 492 nm, triplicate
Procedure: as §2, §3

[8] = test system: hDPSC (Human Dental Pulp Derived Mesenchymal-Like Stem/Progenitor Cells); design: method as in earlier work; settings: EPL001 0.15µM or EPL140 15µM, three days; cited from earlier work
[9] = test system: hMSCs; design: method as in earlier work; settings: EPL001 0.15µM or EPL140 15µM, three days; cited from earlier work

## KLKMNG [EPL630, KLKMNG, EPL030 Front 6]
[1]; 4 µL, mean of 9 reps
  Adults: 1.9
  Infective juveniles: 10.1
[1]; 4 µL, rep 1
  Adults: 1
[1]; 4 µL, rep 2
  Adults: 1
[1]; 4 µL, rep 3
  Adults: 2
[1]; 4 µL, rep 4
  Adults: 2
[1]; 4 µL, rep 5
  Adults: 2
[1]; 4 µL, rep 6
  Adults: 3
[1]; 4 µL, rep 7
  Adults: 2
[1]; 4 µL, rep 8
  Adults: 2
[1]; 4 µL, rep 9
  Adults: 2
[1]; 8 µL, rep 1
  Adults: 4
[1]; 8 µL, rep 2
  Adults: 5
[2]; S3 Table 2, 8 µL, inoculum 500, mean of 3 reps
  Adults: 363
[2]; compared with untreated controls, 48h exposure (Fig 3)
  Egg production in females: markedly below that of controls
[2]; controls ~23%
  Adults as % of the population at termination: 26–29%
[2]; observational
  Time after incubation to fully grown males and females: 48 h
  Time for infective juveniles to transform into pre-adults: about 36 h

## KLKNMGNKIEPVFT [EPL040, Scrambled EPL001 control]
[3]
  Fecundity effect in C. elegans: anti-fecundity

## MKPLTAAAAEFNNI [EPL545, Substituted EPL001; alanines 6–9]
[4]; Day 7
  Cell number vs Glass: −29%
  Mean cell number: 10,007 +/−3,281
[4]; Day 14
  Cell number vs Glass: −32%
  Mean cell number: 18,055 +/−1,771

## MKPLTGKVKEAAAA [EPL104, Substituted EPL001; alanines 11–14]
[4]; 14 days
  Mean cell number below that of EPL001-N: 16%
[4]; Day 7
  Cell number vs Glass: −29%
  Mean cell number: 10,010 +/−4,427
[4]; Day 14
  Cell number vs Glass: −37%
  Mean cell number: 16,736 +/−1,302
[4]; FACS, PI, 86% for glass control
  Number of cells in the G0/G1 phase: 90%
[4]; at termination, control cells 26.95%
  Ki67 staining, % of cells: 12.69%

## MKPVFNNI [EPL801, EPL601 with all of the C-terminal triplet NNI from sSgII-70]
[5]
  Cell inhibitory activity: inactive

## MLKTGEKPNFKNNI [EPL141, Human version of EPL143, with sheep V replaced by human N9]
[6]; PC3, 30 μM, 27h, MTS, 492 nm, triplicate
  Difference in percentage terms between control and test OD means: −22.6%
[6]; PC3 time course study, 24h
  Mean OD as % of the EPL001 mean: 56%
[7]
  Difference in percentage terms between control and test OD means: −27.9%

## MLKTGEKPNKFNNI [EPL140, Variant of human model compound EPL141, with KF instead of FK]
[8]
  Bmal1 expression: ↑↑
  OCN expression: ↓↓
  PPARγ expression: ↓
  Per2 expression: ↑↑
  Rev-ErbA expression: ↓
  Sox9 expression: (↑)
[9]
  Bmal1 expression: ↑
  OCN expression: ↓
  PPARγ expression: ↓↓
  Per2 expression: ↓
  Rev-ErbA expression: ↓
  Sox9 expression: ↓↓
